The target of this assay is MALT1 (Homo sapiens (Human), UniProt Q9UDY8). Description: MALT1 enzymatic activity inhibition (fluorescence, Ac-LRSR-AMC substrate). The note with it: recombinant MALT1 1.5 ng/μl, Ac-LRSR-AMC 1 μM. It is filed as biochemical. How it is done: Compound activity was determined using recombinant MALT1 protein (Creative Biomart, Cat #MALT1-28H) and Ac-LRSR-AMC Substrate in an in vitro enzymatic reaction. The enzymatic assay used to determine activity was a Fluorescence assay using a Microplate Reader ClarioStar Plus. The enzymatic reaction was carried out in 1× Assay Buffer (50 mM HEPES pH 7.2-7.4, 100 mM NaCl, 900 mM Sodium citrate, 10 mM DTT). The compounds were dispensed on a 384-well Diamond Well Plate (Axygen, Cat #P-384-120SQ-C—S) using the Biomek FX liquid handling system at 100× solutions of compounds in DMSO. 2.5×MALT1 mix (final concentration 1.5 ng/μl of MALT1) was prepared in 1× Assay Buffer and 8 μl of mixture per well were added into 384w white Reaction Plates with NBS (Corning, Cat #4513). 8 μl of 1× Assay Buffer were used for negative control. Plates were centrifuged for 1 min at 200 g. Next, the compounds were added to Reaction plates using Biomek station via following steps: 1 μl of 100× compounds (in DMSO) was mixed thoroughly with 19 μl of 1× Assay Buffer, then 4 μl of this mixture were added to Reaction plates with 8 μl of MALT1 mix. Plates were centrifuged for 1 min at 200 g and incubated for 10 minutes at rt. Next, 2.5× Ac-LRSR-AMC mix (final concentration 1 μM of Ac-LRSR-AMC) was prepared in 1× Assay Buffer and 8 μl of mixture per well were added to Reaction Plates using Biomek station. Plates were centrifuged for 1 min at 200 g, then the fluorescence was measured immediately using Microplate Reader. Plates were incubated for 30 minutes at 37° C., then for 30 minutes at rt. The fluorescence was measured after the whole incubation using Microplate Reader. The reaction signal was calculated as the subtraction of the first data set values from the second. The % inhibition was then used to calculate the IC50 values. The results of this assay are shown in the Table A. The values of EC50 shown as a letters A-E, where: A≤0.2 μM; 0.2 μM<B≤0.5 μM; 0.5 μM<C≤1 μM; 1<D≤5 μM; E >5.
MALT1, sequence (Q9UDY8 whole entry): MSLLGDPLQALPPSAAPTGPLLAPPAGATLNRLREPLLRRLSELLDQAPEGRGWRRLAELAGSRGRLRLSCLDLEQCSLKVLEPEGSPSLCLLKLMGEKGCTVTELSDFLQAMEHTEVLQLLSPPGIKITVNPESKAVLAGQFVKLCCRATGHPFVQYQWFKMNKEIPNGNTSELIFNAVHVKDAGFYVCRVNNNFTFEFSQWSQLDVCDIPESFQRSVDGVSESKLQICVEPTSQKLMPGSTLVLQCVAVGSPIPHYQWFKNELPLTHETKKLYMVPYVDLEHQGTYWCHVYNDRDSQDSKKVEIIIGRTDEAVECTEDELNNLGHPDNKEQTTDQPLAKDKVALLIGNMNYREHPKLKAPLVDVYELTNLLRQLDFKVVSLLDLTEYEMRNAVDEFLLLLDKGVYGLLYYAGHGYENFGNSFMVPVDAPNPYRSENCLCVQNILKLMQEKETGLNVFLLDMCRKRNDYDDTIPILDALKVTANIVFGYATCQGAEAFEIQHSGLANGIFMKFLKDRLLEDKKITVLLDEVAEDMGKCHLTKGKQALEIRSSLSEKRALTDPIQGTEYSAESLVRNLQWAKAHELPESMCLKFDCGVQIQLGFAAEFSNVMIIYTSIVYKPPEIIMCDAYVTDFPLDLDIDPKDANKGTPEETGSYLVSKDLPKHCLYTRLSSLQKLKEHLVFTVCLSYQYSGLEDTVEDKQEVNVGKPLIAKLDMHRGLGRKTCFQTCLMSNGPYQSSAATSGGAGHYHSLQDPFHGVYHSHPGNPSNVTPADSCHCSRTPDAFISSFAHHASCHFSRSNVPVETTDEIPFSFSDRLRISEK

A value given as a limit tells only on which side of the number the result lay.

Regarding `Cc1cc(NC(=O)Nc2cnc3ccnn3c2C2CCCC2)cnc1-c1noc(CCCCCC(=O)N2CCN(c3ccc4c(c3)CN(C3CCC(=O)N(COC(=O)C(C)(C)C)C3=O)C4=O)CC2)n1` (centres unmarked) [Compound 102, [3-[5-[4-[6-[3-[5-[(7-cyclopentylpyrazolo[1,5-a]pyrimidin-6-yl)carbamoylamino]-3-methyl-2-pyridyl]-1,2,4-oxadiazol-5-yl]hexanoyl]piperazin-1-yl]-1-oxo-isoindolin-2-yl]-2,6-dioxo-1-piperidyl]methyl 2,2-dimethylpropanoate], the 50% effective concentration (EC50) (as a rule, the concentration giving half of the maximal effect) was not above 0.2 µM.

In the case of `O=C1CCC(N2Cc3cc(N4CCN(C(=O)CCCCc5nc(-c6ncc(NC(=O)Nc7cnc8ccnn8c7C7CC7)cc6Cl)no5)CC4)ccc3C2=O)C(=O)N1` (centres unmarked) [Compound 160, 1-[5-chloro-6-[5-[5-[4-[2-(2,6-dioxo-3-piperidyl)-1-oxo-isoindolin-5-yl]piperazin-1-yl]-5-oxo-pentyl]-1,2,4-oxadiazol-3-yl]-3-pyridyl]-3-(7-cyclopropylpyrazolo[1,5-a]pyrimidin-6-yl)urea], the 50% effective concentration (EC50) is not above 0.2 µM.

`CC(C)c1c(NC(=O)Nc2cnc(-c3noc(CCCCCC(=O)N4CCN(c5ccc6c(c5)CN(C5CCC(=O)NC5=O)C6=O)CC4)n3)c(C(F)(F)F)c2)cnc2ccnn12` (centres unmarked) [Compound 162, 1-[6-[5-[6-[4-[2-(2,6-dioxo-3-piperidyl)-1-oxo-isoindolin-5-yl]piperazin-1-yl]-6-oxo-hexyl]-1,2,4-oxadiazol-3-yl]-5-(trifluoromethyl)-3-pyridyl]-3-(7-isopropylpyrazolo[1,5-a]pyrimidin-6-yl)urea]: the half-maximal effective concentration (EC50) was not above 0.2 µM.

On to `Cc1cc(NC(=O)Nc2cnc3ccnn3c2C(C)C)cnc1-c1nnc(CCCCC(=O)N2CCN(c3ccc4c(c3)CN(C3CCC(=O)NC3=O)C4=O)CC2)s1` (centres unmarked) [Compound 154, 1-[6-[5-[5-[4-[2-(2,6-dioxo-3-piperidyl)-1-oxo-isoindolin-5-yl]piperazin-1-yl]-5-oxo-pentyl]-1,3,4-thiadiazol-2-yl]-5-methyl-3-pyridyl]-3-(7-isopropylpyrazolo[1,5-a]pyrimidin-6-yl)urea], for which the EC50 lay in the range of 0.2 to 0.5 µM.

On to `O=C(CCOCCN1CCN(c2ccc3c(c2)CN(C2CCC(=O)NC2=O)C3=O)CC1)NCCOc1ncc(Cl)cc1NC(=O)Nc1cn2ccnc2nc1C1CCCCC1` (centres unmarked) [Compound 50, N-[2-[[5-chloro-3-[(7-cyclohexylimidazo[1,2-a]pyrimidin-6-yl)carbamoylamino]-2-pyridyl]oxy]ethyl]-3-[2-[4-[2-(2,6-dioxo-3-piperidyl)-1-oxo-isoindolin-5-yl]piperazin-1-yl]ethoxy]propanamide], for which the EC50 lay in the range of 1 to 5 µM.

As to `CC(C)c1c(NC(=O)Nc2cnc(-c3noc(CCCC(=O)N4CCN(c5ccc6c(c5)CN(C5CCC(=O)N(COC(=O)C(C)(C)C)C5=O)C6=O)CC4)n3)c(Cl)c2)cnc2ccnn12` (centres unmarked) [Compound 137, [3-[5-[4-[4-[3-[3-chloro-5-[(7-isopropylpyrazolo[1,5-a]pyrimidin-6-yl)carbamoylamino]-2-pyridyl]-1,2,4-oxadiazol-5-yl]butanoyl]piperazin-1-yl]-1-oxo-isoindolin-2-yl]-2,6-dioxo-1-piperidyl]methyl 2,2-dimethylpropanoate], the EC50 is not above 0.2 µM.

For the compound `Cc1cc(NC(=O)Nc2cnc3ccnn3c2C(C)(C)C)cnc1-c1noc(CCCCC(=O)N2CCN(c3ccc4c(c3)CN(C3CCC(=O)NC3=O)C4=O)CC2)n1` (centres unmarked) [Compound 127, 1-(7-tert-butylpyrazolo[1,5-a]pyrimidin-6-yl)-3-[6-[5-[5-[4-[2-(2,6-dioxo-3-piperidyl)-1-oxo-isoindolin-5-yl]piperazin-1-yl]-5-oxo-pentyl]-1,2,4-oxadiazol-3-yl]-5-methyl-3-pyridyl]urea], the EC50 fell in the range of 1 to 5 µM.

For `Cc1cc(NC(=O)Nc2cnc3ccnn3c2C2CCCO2)cnc1-c1noc(CCC(=O)N2CCN(c3ccc4c(c3)CN(C3CCC(=O)NC3=O)C4=O)CC2)n1` (centres unmarked) [Compound 60, 1-[6-[5-[3-[4-[2-(2,6-dioxo-3-piperidyl)-1-oxo-isoindolin-5-yl]piperazin-1-yl]-3-oxo-propyl]-1,2,4-oxadiazol-3-yl]-5-methyl-3-pyridyl]-3-(7-tetrahydrofuran-2-ylpyrazolo[1,5-a]pyrimidin-6-yl)urea], the EC50 was not above 0.2 µM.

The values are drawn from patent US20250163066A1, “PROTACs of MALT1” (TEGID THERAPEUTICS, INC., priority 2022, published 2025).
